{"source": "patent US20220193209A1", "about": "“COMPOSITIONS AND METHODS FOR REACTIVATING LATENT IMMUNODEFICIENCY VIRUS AND/OR TREATING IMMUNODEFICIENCY VIRUS INFECTION” (The J. David Gladstone institutes, a testamentary trust …, priority 2019, published 2022)", "key": {"[1]": {"tested_on": "latent HIV-1 provirus in J-Lat cells", "experiment": "HIV-GFP reactivation in J-Lat cell lines (RT-qPCR, FACS)", "format": "cell-based", "procedure": "Total RNA from samples was extracted using the Direct-zol RNA kit (R2060; Zymogen). cDNA was generated using 500 ng for CD4^+ T cells or 1000 ng of total RNA for J-Lats with Superscript III Reverse transcription (18080-044; ThermoFisher) and oligo(dT) (18418-012; ThermoFisher). Quantitative RT-PCR was carried out using Maxima SYBR Green qPCR Master Mix (Thermo Scientific) on SDS 2.4 software (Applied Biosystems) in a total volume of 12 μL. The SYBR green qPCR reactions contained 5 μl of 2× Maxima SYBR green/Rox qPCR Master Mix (K0221; ThermoFisher), 5 μl of diluted cDNA, and 1 nmol of both forward and reverse primers. The reactions were run using the following conditions: 50° C. for 2 min and 95° C. for 10 min, followed by 40 cycles of 95° C. for 5 s and 62° C. for 30 s. See Table 1 below for a qRT-PCR primer list. […] Dissociation curve analysis was performed after the end of the PCR to confirm the presence of a single and specific product. All qPCRs were independently repeated at least three times, averaged and compared using standard deviation (±SD).\nThe J-Lat clonal cell lines are Jurkat cells that contain a stably integrated, latent HIV-1 (HXB) Δenv provirus with a GFP reporter gene in place of the nef gene (Jordan, A. et al. EMBO J. 22, 1868-1877 (2003)). In this system, reactivation from established latency can be monitored through GFP expression.\nHIV-GFP mRNA reactivation was assessed by RT-qPCR and normalized to RPL13A mRNA. Data represent average SD of three independent experiments. p-value relative to the control at each time point. FIG. 3, Panel B, depicts cell viability assessed by flow cytometry at 72 h of the same experiment as in A. Cell viability was measured by gating on both the live population at the forward scatter (FSC) and side scatter (SSC) plot and then the viable cells after staining with the viability dye. […] HIV-GFP reactivation (bars) and cell viability (dots) were analyzed by FACS. HIV-GFP reactivation is reported as a percentage of GFP-expressing cells (% GFP+ cells). Data represent average f SD of at least three independent experiments. FIG. 3, Panel D, depicts the same experiments as in FIG. 3, Panel C, but performed in different J-Lat cell lines 5A8, 6.3, 11.1 and 15.4. Data represent average f SD of at least three independent experiments. 10 ng/mL TNFα was used as control. […] Calculation of synergy for drug combinations using the Bliss independence model applied to the HIV-GFP reactivation measured as a percentage of GFP-expressing cells (% GFP+ cells).\nChromatin was prepared from J-Lat A2 and 5A8 cells, in which the LTR was stimulated by 1000 nM AS1842856 treatment, TNFα or which were left untreated/DMSO. […] HIV-GFP reactivation was analyzed by FACS and relativized to the control condition. […] Data represent average SD of 3-6 independent experiments. […] HIV-GFP reactivation was analyzed by FACS. […] HIV-GFP reactivation and cell viability were analyzed by FACS. Data were mean±SD of three independent experiments."}, "[2]": {"tested_on": "latent HIV in CD4+ T cells from HIV-infected patients", "experiment": "Cell-associated HIV RNA by ddPCR in CD4+ T cells of HIV-infected patients on antiretroviral therapy, ex vivo", "format": "cell-based", "conditions": "100 and 1000 nM, 3 days, five patients", "method": "Cells were treated ex vivo with two concentrations of AS1842856 (100 and 1000 nM), prostratin (250 nM) or combinations thereof for 3 days, and HIV RNA induction was measured by digital droplet PCR (ddPCR)."}}, "data": [{"smiles": "CCn1cc(C(=O)O)c(=O)c2c(N)c(F)c(NC3CCCCC3)cc21", "note": "[AS1842856, 5-amino-7-(cyclohexylamino)-1-ethyl-6-fluoro-4-oxo-1,4-dihydro-quinoline-3-carboxylic acid]", "values": [{"measurement": "HIV-driven GFP expression (flow cytometry)", "setting": "[1]; J-Lat A2 cells (contain Tat)", "value": "increased GFP expression"}, {"measurement": "HIV-driven GFP expression (flow cytometry)", "setting": "[1]; J-Lat A72 cells (no Tat)", "value": "increased GFP expression"}, {"measurement": "HIV reactivation (percentage of GFP+ cells, median fluorescence intensity)", "setting": "[1]; four J-Lat clonal cell lines, 72 hours", "value": "reactivated HIV in each cell line"}, {"measurement": "HIV RNA induction", "setting": "[2]", "value": "two-fold"}]}]}
